The numbers were not newly measured in US9687482B2, “Stable pharmaceutical composition comprising solifenacin, and method for preparing the same” (CJ HEALTHCARE CORPORATION, priority 2014, dated 2017), which cites them from elsewhere.

The target in this data set is muscarinic M3 receptors (Homo sapiens, UniProt P20309). Conditions: reported.
muscarinic M3 receptors, sequence (P20309 whole entry): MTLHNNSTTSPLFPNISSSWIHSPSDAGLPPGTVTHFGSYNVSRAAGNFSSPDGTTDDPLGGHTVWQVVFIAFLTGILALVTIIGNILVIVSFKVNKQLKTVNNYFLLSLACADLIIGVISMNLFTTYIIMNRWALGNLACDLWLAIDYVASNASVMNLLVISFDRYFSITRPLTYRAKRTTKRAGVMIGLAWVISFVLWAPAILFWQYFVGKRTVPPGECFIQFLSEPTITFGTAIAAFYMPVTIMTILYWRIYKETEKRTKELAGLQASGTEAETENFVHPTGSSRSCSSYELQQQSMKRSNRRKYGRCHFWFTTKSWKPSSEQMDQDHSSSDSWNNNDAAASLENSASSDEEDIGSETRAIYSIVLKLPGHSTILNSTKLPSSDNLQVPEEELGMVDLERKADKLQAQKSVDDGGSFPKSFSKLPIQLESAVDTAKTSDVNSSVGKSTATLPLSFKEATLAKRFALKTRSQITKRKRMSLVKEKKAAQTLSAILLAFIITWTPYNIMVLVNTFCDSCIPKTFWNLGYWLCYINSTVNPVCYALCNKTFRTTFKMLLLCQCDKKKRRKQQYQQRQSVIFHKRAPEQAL

Take `O=C(O[C@H]1CN2CCC1CC2)N1CCc2ccccc2[C@@H]1c1ccccc1` [Solifenacin, (1R,3′R)-3′-quinuclidinyl-1-phenyl-1,2,3,4-tetrahydro-2-isoquinoline carboxylate]: the “antagonistic action against muscarinic M3 receptors” value was “excellent selective antagonistic action”.
